Test results reported in patent publication US10294202B2, “Pyrrolidinones as herbicides” (FMC Corporation, priority 2013, dated 2019).
Read-outs that look alike come from different tables or passages of the source.

Assays:
morningglory = assay: Test A pre-/postemergence herbicide test; format: in vivo, Ipomoea spp.; conditions: for Morningglory plant response rating: Preemergence, visual rating on 0 to 100 scale (0 no effect, 100 complete control); for pest or weed control at 125 g/ha / pest or weed control at 500 g/ha: Ipomoea, 240 h, read-out: Plant response rating, Morningglory
Method in brief: (§1)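 Visual injury ratings, 0 = no effect, 100 = complete control, taken ~10 days after treatment against untreated greenhouse controls. Preemergence: directed soil spray onto seeded loam/sand pots. Postemergence: spray onto plants at one- to two-leaf stage, 2–10 cm tall.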

ducksalad = assay: Test C flooded paddy test; format: in vivo, Heteranthera limosa; conditions: Flood
Method in brief: (§2)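 Plants at the 2-leaf stage in pots flooded to 3 cm were treated by applying compound directly to the paddy water, with depth held throughout. After 13 to 15 days in a greenhouse, response was rated visually against controls on a 0 (no effect) to 100 (complete control) scale.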

velvetleaf = assay: Test A pre-/postemergence herbicide test; format: in vivo, Abutilon theophrasti; conditions: for Velvetleaf plant response rating: Preemergence, visual rating on 0 to 100 scale (0 no effect, 100 complete control); for pest or weed control at 125 g/ha / pest or weed control at 500 g/ha: Abutilon theophrasti, 240 h, read-out: Plant response rating, Velvetleaf
Method in brief: as §1

crabgrass, large = assay: Test A pre-/postemergence herbicide test; format: in vivo, Digitaria sanguinalis; conditions: for Crabgrass, Large plant response rating: Preemergence, visual rating on 0 to 100 scale (0 no effect, 100 complete control); for pest or weed control at 125 g/ha / pest or weed control at 500 g/ha: Digitaria sanguinalis, 240 h, read-out: Plant response rating, Crabgrass, Large
Method in brief: as §1

rice = assay: Test C flooded paddy test; format: in vivo, Oryza sativa; conditions: Flood
Method in brief: as §2

sedge, umbrella = assay: Test C flooded paddy test; format: in vivo, Cyperus difformis; conditions: Flood
Method in brief: as §2

[1] = Postemergence, 125 g ai/ha, 0 to 100 scale, 0 no effect, 100 complete control
[2] = Postemergence, 500 g ai/ha, 0 to 100 scale (0 no effect, 100 complete control)
[3] = preemergence, 500 g ai/ha, 0 to 100 scale
[4] = 31 g ai/ha, scale of 0 to 100 where 0 is no effect and 100 is complete control, 13 to 15 days
[5] = 62 g ai/ha, scale of 0 to 100 where 0 is no effect and 100 is complete control, 13 to 15 days
[6] = 125 g ai/ha, scale of 0 to 100 where 0 is no effect and 100 is complete control, 13 to 15 days
[7] = post-emergence, Postemergence, 125 g ai/ha, 0 to 100 scale, 0 no effect, 100 complete control
[8] = post-emergence, Postemergence, 500 g ai/ha, 0 to 100 scale (0 no effect, 100 complete control)
[9] = pre-emergence, preemergence, 500 g ai/ha, 0 to 100 scale

Compound	Morningglory plant response rating (morningglory; 125 g ai/ha)	Plant response rating, Ducksalad (ducksalad; [4])	Plant response rating, Ducksalad (ducksalad; [5])	Plant response rating, Ducksalad (ducksalad; [6])	Plant response rating, Ducksalad (ducksalad; 250 g ai/ha, scale 0 to 100)	Velvetleaf plant response rating (velvetleaf; 125 g ai/ha)	Crabgrass, Large plant response rating (crabgrass, large; 125 g ai/ha)	Plant response rating, Rice (rice; [4])	Plant response rating, Rice (rice; [5])	Plant response rating, Rice (rice; [6])	Plant response rating, Rice (rice; 250 g ai/ha, scale 0 to 100)	Plant response rating, Sedge, Umbrella (sedge, umbrella; [4])	Plant response rating, Sedge, Umbrella (sedge, umbrella; [5])	Plant response rating, Sedge, Umbrella (sedge, umbrella; [6])	Plant response rating, Sedge, Umbrella (sedge, umbrella; 250 g ai/ha, scale 0 to 100)	pest or weed control at 125 g/ha (morningglory; [7])	pest or weed control at 500 g/ha (morningglory; [8])	pest or weed control at 500 g/ha (morningglory; [9])	pest or weed control at 125 g/ha (velvetleaf; [7])	pest or weed control at 500 g/ha (velvetleaf; [8])	further results
O=C1NCC(c2ccc(Cl)c(F)c2)C1C(=O)Nc1cccc(F)c1F (stereo not drawn) [Compound 52]	0	40	40	75	95	0	90	10	10	10	15	0	40	50	75						Plant response rating, Morningglory (morningglory; [1]): 0; Plant response rating, Morningglory (morningglory; [2]): 0; Plant response rating, Morningglory (morningglory; [3]): 0; Plant response rating, Velvetleaf (velvetleaf; [1]): 0; Plant response rating, Velvetleaf (velvetleaf; [2]): 0; Plant response rating, Velvetleaf (velvetleaf; [3]): 20; Plant response rating, Crabgrass, Large (crabgrass, large; [1]): 80; Plant response rating, Crabgrass, Large (crabgrass, large; [2]): 80; Plant response rating, Crabgrass, Large (crabgrass, large; [3]): 90
O=C1NCC(c2ccc(C(F)(F)F)cc2)C1C(=O)Nc1cccc(F)c1F (stereo not drawn) [Compound 80, N-(2,3-difluorophenyl)-2-oxo-4-[4-(trifluoromethyl)phenyl]-3-pyrrolidinecarboxamide]	0	70	70	100	100	0	90	0	0	0	0	35	35	55	65	0%	0%	0%	10%	60%	pest or weed control at 500 g/ha (velvetleaf; [9]): 30%; pest or weed control at 125 g/ha (crabgrass, large; [7]): 80%; pest or weed control at 500 g/ha (crabgrass, large; [8]): 90%; pest or weed control at 500 g/ha (crabgrass, large; [9]): 90%
O=C1NCC(Br)(c2ccccc2)C1C(=O)Nc1ccccc1F (stereo not drawn) [Compound 92, 4-bromo-N-(2-fluorophenyl)-2-oxo-4-phenyl-3-pyrrolidinecarboxamide]	0	0	20	20	70	0	80	10	10	20	20	0	0	0	0	0%	0%	0%	0%	0%	pest or weed control at 500 g/ha (velvetleaf; [9]): 0%; pest or weed control at 125 g/ha (crabgrass, large; [7]): 20%; pest or weed control at 500 g/ha (crabgrass, large; [8]): 70%; pest or weed control at 500 g/ha (crabgrass, large; [9]): 90%
O=C1NCC(c2ccccc2)C1(Br)C(=O)Nc1ccccc1F (stereo not drawn) [Compound 93, 3-bromo-N-(2-fluorophenyl)-2-oxo-4-phenyl-3-pyrrolidinecarboxamide]	0	0	0	0	85	0	90	10	20	20	30	0	0	0	100	0%	0%	0%	0%	0%	pest or weed control at 500 g/ha (velvetleaf; [9]): 0%; pest or weed control at 125 g/ha (crabgrass, large; [7]): 50%; pest or weed control at 500 g/ha (crabgrass, large; [8]): 80%; pest or weed control at 500 g/ha (crabgrass, large; [9]): 90%
